Laboratory results: patent US20200113920A1, “COMPOSITIONS AND METHODS FOR TREATMENT OF MICROSPORIDIA INFECTION USING PROTEASOME INHIBITORS INCLUDING IXAZOMIB” (BARNARD COLLEGE, priority 2018, published 2020)
Structures can show the parent of a compound that is named as a salt. Non-standard residues stand in square brackets, D forms with d. Residues, ends and D or L forms follow the SMILES beside them. ξ: configuration not given here. *: point of attachment. Cbz = O=C(OCc1ccccc1)*; ξL = CC(C)CC(N)C(=O)O

Columns and labels:
honey bees = test: Honey bee survival during drug feeding; assay type: in vivo, Apis mellifera; conditions: 40 μM in sucrose solution for 10 days starting day 3 post-eclosion, newly emerged bees
Description: To assess the impact of ixazomib treatment on age-matched honey bees, newly emerged bees were fed sucrose solution containing ixazomib, ixazomib citrate, Fumagillin (all at 40 μM), or vehicle alone for 10 days starting on day 3 post-eclosion.

N. ceranae [1] = test: N. ceranae infection in newly eclosed, experimentally infected honey bees fed proteasome inhibitors (spore counting and quantitative PCR); assay type: in vivo, Nosema ceranae; conditions: for infection intensity after cessation of treatment (rebound): four days treatment, then sucrose solution alone for 4 days, spore counting and DNA; for efficacy against N. ceranae infection relative to Fumagillin: feeding bees during N. ceranae infection
Source text: To standardize experiments by using age-matched bees and to allow for longer treatment periods, we used newly enclosed bees and tested the effects of a number of commercially available proteasome inhibitors, including Ixazomib (MLN2238) (purchased from Selleck Chemicals), Ixazomib citrate (MLN9708) (purchased from Selleck Chemicals), Oprozomib (ONX 0912) (purchased from Selleck Chemicals), Dexazomib (purchased from Selleck Chemicals), Carfilzomib (purchased from Selleck Chemicals), Bortezomib (purchased from Selleck Chemicals), Epoxomicin (purchased from Selleck Chemicals), HMB-Val-Ser-Leu-VE (purchased from Cayman Chemical), MG-262 (purchased from APExBIO), and the two stereoisomers of MG132 (S and R) (purchased from Cayman Chemical) as well as Fumagillin (purchased from Selleck Chemicals). On day two post-eclosion, N. ceranae spores (5×10^6 ml) were fed to bees in sucrose solution ad libitum (Fries et al. 2013) for 48 hours. At 3 days post infection, honey bees in individual cages were fed sucrose solution containing one of the pharmacologic agents at 40 μM or vehicle control alone. For each trial, we tested pairs of novel compounds simultaneously with an untreated group, a Fumagillin treated group, and an Ixazomib-treated group. After 4 days of drug feeding, honey bee midguts were dissected, and infection levels were assessed by spore counting and quantitative PCR.
We focused on ixazomib and ixazomib citrate for further experiments. Again using newly eclosed bees, we treated infected bees for up to eight days with ixazomib, Fumagillin, or sucrose solution alone, and measured infection level by spore counting and DNA on days 4 and 8 post initiation of treatment (FIGS. 4A and 4B). […] Finally, the goal was to determine whether any rebound of N. ceranae infection was observed after cessation of treatment by ixazomib and ixazomib citrate as has been reported for Fumagillin (Huang et al. 2013). Infected newly eclosed bees were treated with sucrose solution containing ixazomib, ixazomib citrate, Fumagillin, or vehicle alone for four days. We then switched all cages to sucrose solution alone for 4 days and then measured infection level by spore counting and DNA. We observed that infection intensity stayed the same for bees receiving sucrose solution for the whole experiment, increased for those bees treated with Fumagillin first, and decreased for those bees fed either ixazomib or ixazomib citrate first (FIGS. 4E and 4F).

Encephalitozoon hellem = test: E. hellem infection of RK-13 cells, qPCR-based assay of pathogen and host cell genome equivalents; conditions: four-day infection of RK-13 cells
Source text: (§1) Thus, it was hypothesized that pharmacological inhibition of the UPS will reduce infection intensity of diverse microsporidia in their respective host species. To test this hypothesis, we chose to focus on Encephalitozoon hellem, a microsporidia species first described as the cause of keratoconjunctivitis in 3 AIDS patients in 1991 (Didier et al. 1991) and subsequently observed in numerous immunocompromised patients (Weiss and Becnel, 2014). The genome of E. hellem has been sequenced (Pombert et al. 2012) and it is easily culturable (Molestina et al. 2014), making it ideal for such studies.

N. ceranae [2] = test: N. ceranae infection intensity in experimentally infected honey bees fed drug in sucrose syrup; assay type: in vivo, Nosema ceranae
Description: that works by reacting with the β5 subunit responsible for chymotrypsin-like activity (Goldberg, 2012). After experimentally infecting bees, infected bees were fed sucrose syrup or sucrose syrup containing 500 μM MG132 for 2 days starting on day 6 post infection. On day 8 post infection, spore levels were then measured using light microscopy to determine the effects of proteasome inhibition on N. ceranae infection intensity. […] MG132 is a poorly bioavailable proteasome inhibitor with known toxicity in multicellular eukaryotes. […] Significant effort has been directed towards finding novel strategies for targeting the proteasome (Goldberg, 2012; Śledź and Baumeister, 2016; Cromm and Crews, 2017), providing a number of pharmacologic agents with better efficacy, improved bioavailability, and increased selectivity. We first tested the ability of ixazomib, a modified peptide boronic acid that binds the β5 site of the 20 S proteasome and inhibits proteasome activity (Kupperman et al. 2010), to reduce N. ceranae infection in honey bees. Ixazomib is commercially available (e.g., from Selleck Chemincals) and has the structure of […]

N. ceranae [3] = test: N. ceranae infection in naturally infected bees from a highly infected colony; assay type: in vivo, Nosema ceranae; conditions: bees from a highly infected colony (prevalence>90% infected); fed 2 days vs DMSO vehicle control
[4] = tested on: rabbit kidney cell line (RK-13) cells; test: Rabbit cell numbers in E. hellem-infected RK-13 culture; assay type: cell-based; conditions: 10-100 nM ixazomib; four-day infection of RK-13 cells
Source text: as §1

CO[C@@H]1[C@H](OC(=O)/C=C/C=C/C=C/C=C/C(=O)O)CC[C@]2(CO2)[C@H]1[C@@]1(C)O[C@@H]1CC=C(C)C [Fumagillin]
honey bee survival (honey bees): no differences in the survival between treatments | infection intensity after cessation of treatment (rebound) (N. ceranae [1]): increased | E. hellem infection intensity, Fumagillin compared with ixazomib (Encephalitozoon hellem; 50 ng/ml Fumagillin): comparable | N. ceranae infection intensity, Fumagillin compared with MG132 (N. ceranae [2]; two days of feeding Fumagillin, data not shown): similar

CCOC(=O)/C=C/[C@H](CC(C)C)NC(=O)[C@H](CO)NC(=O)[C@@H](NC(=O)c1cccc(O)c1C)C(C)C [HMB-Val-Ser-Leu-VE]
infection level by relative genome equivalents (N. ceranae [1]; 40 μM in sucrose solution, from 3 days post infection, 4 days of drug feeding, midguts, quantitative PCR): all tested proteasome inhibitors except HMB-Val-Ser-Leu-VE

CC(C)C[C@H](NC(=O)CNC(=O)c1cc(Cl)ccc1Cl)B1OC(=O)C(CC(=O)O)(CC(=O)O)O1 [Ixazomib citrate]
honey bee survival (honey bees): no differences in the survival between treatments

CC(C)C[C@H](NC(=O)CNC(=O)c1cc(Cl)ccc1Cl)B(O)O [Ixazomib]
honey bee survival (honey bees): no differences in the survival between treatments | N. ceranae infection by both spore-counting and DNA analysis (N. ceranae [3]): striking reduction | N. ceranae infection intensity by spore counting and DNA analysis (N. ceranae [1]; 2.5 μM): diminished, but still robust, reduction in infection intensity | impact on N. ceranae infection levels (ranking among tested inhibitors) (N. ceranae [1]; 40 μM, 4 days of drug feeding, spore counting and quantitative PCR): most effective at reducing infection levels | efficacy against N. ceranae infection relative to Fumagillin (N. ceranae [1]): better efficacy than Fumagillin | infection intensity after cessation of treatment (rebound) (N. ceranae [1]): decreased | N. ceranae infection level, dose and time dependence (N. ceranae [1]; treated up to eight days, measured days 4 and 8, spore counting and DNA analysis (FIGS. 4A-4F)): stably reduces N. ceranae infection level in a dose and time dependent manner | E. hellem infection intensity (Encephalitozoon hellem; 10-100 nM ixazomib, preliminary results): reduces E. hellem infection intensity | rabbit cell numbers [4]: without substantial reduction in rabbit cell numbers

CC(C)CC(NC(=O)[C@H](CC(C)C)NC(=O)OCc1ccccc1)C(=O)N[C@H](C=O)CC(C)C (stereo partly drawn) [MG132] (Cbz-Leu-[ξL]-Leu-aldehyde)
efficacy against N. ceranae infection relative to Fumagillin (N. ceranae [1]): not as efficacious as Fumagillin | N. ceranae infection intensity (spore levels by light microscopy) (N. ceranae [2]; experimentally infected bees, 500 μM MG132 in sucrose syrup for 2 days (48 hours) from day 6 post infection, measured day 8): dramatic reduction in infection intensity
